Drawing on PubChem BioAssay (NCI), this text covers TGI and GI50 for 15 compounds.

Holding throughout (assay): inhibition of tumour cell growth, NCI panel, 48 h
Assay [1] deals with MCF7 breast.
The subject of assay [2] is SR leukemia.
In assay [3] the test system is MALME-3M melanoma.
Assay [4] deals with HOP-62 NSCLC.
Assay [5] has as its system T-47D breast.
Assay [6] relates to CAKI-1 renal.
Assay [7] deals with IGROV1 ovarian.
Assay [8] deals with MDA-N.
The test system of assay [9] is A498 renal.
Assay [10] concerns HS 578T breast.
The subject of assay [11] is RXF 393 renal.
In assay [12] the test system is SK-MEL-2 melanoma.
The test system of assay [13] is UACC-257 melanoma.
The subject of assay [14] is UACC-62 melanoma.
For assay [15], the system named is 786-0 renal.
For assay [16], the system named is OVCAR-4 ovarian.
The subject of assay [17] is OVCAR-8 ovarian.
Assay [18] deals with RPMI-8226 leukemia.

The structures appear in SMILES notation.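 Results reflect a 48-hour exposure of cells in 96-well plates to compound at five concentrations. At the GI50, growth is halved. TGI denotes the concentration required for complete inhibition of growth.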

As to `CC(N)/C(N)=N/O` (stereo not drawn), the TGI in assay [1], in [2], in [3], in [4], in assay [5] and in assay [6] was over 100 µM throughout. Moreover, the TGI in [7], in [8], in assay [9], in assay [10], in [11] and in assay [12] was over 100 µM throughout. Further, the TGI in assay [13], in assay [14], in assay [15], in assay [16], in assay [17] and in assay [18] was over 100 µM throughout.

For `NC(Cc1ccccc1)C(=O)NC(Cc1ccccc1)NC(=O)C(Cc1c[nH]c2ccccc12)C(=O)O` (stereo not drawn), the TGI in assay [1], in assay [2], in [3], in assay [4], in assay [5] and in assay [6] was over 100 µM in each case. In addition, the TGI in assay [7], in [8], in assay [9], in [10], in [11] and in [12] was over 100 µM each time. For the same compound, the TGI in assay [13], in [14], in [15], in assay [16], in assay [17] and in [18] was over 100 µM throughout.

Consider `O=C1c2ccccc2-n2nnnc2C2CSCN12` (stereo not drawn), for which the TGI in assay [1], in assay [2], in assay [3], in [4], in assay [5] and in [6] was over 100 µM each time. The TGI in assay [7], in assay [8], in assay [9], in assay [10], in assay [11] and in assay [12] was over 100 µM throughout. The TGI in assay [13], in assay [14], in assay [15], in assay [16], in assay [17] and in assay [18] was over 100 µM throughout.

Consider `CC(C)(CN1CCCCC1)C(/C=C/c1ccc(Cl)cc1)=N\NC(=O)N/N=C(/C=C/c1ccc(Cl)cc1)C(C)(C)CN1CCCCC1`, for which the TGI in assay [1] is over 35.3 µM; in assay [2], 8.52 µM; in assay [3], 22.9 µM; in assay [4] it was 14.2 µM; in assay [5], 13.6 µM; in assay [6], 7.3 µM. Besides, the TGI in assay [7] was determined as 13.4 µM; in [8], 10.7 µM; in assay [9], 20.4 µM; in assay [10], 19.9 µM; in [11], 8.24 µM; in [12] it was 22.8 µM. The TGI in assay [13] is 17.1 µM; in assay [14] it was 12.1 µM; in assay [15], 11.1 µM; in assay [16] it was 15 µM; in assay [17], 23.1 µM; in assay [18] it was 54.8 µM.

Turning to `O=C1SC(SCc2ccccc2)=NC12CC2c1ccccc1` (stereo not drawn), the TGI was 40.1 µM in [1]; 52.5 µM in assay [2]; 34.8 µM in [3]; over 82.8 µM in assay [4]; over 100 µM in assay [5]; 40.5 µM in [6]. Further, the TGI in [7] worked out at 52.6 µM; in assay [8], 49 µM; in [9], 65.1 µM; in assay [10], 68.4 µM; in assay [11], 37.2 µM; in [12], 40.1 µM. The TGI was determined as 38.5 µM in assay [13]; 32.8 µM in assay [14]; 39.2 µM in assay [15]; 51.7 µM in assay [16]; 41.8 µM in assay [17]; 48.3 µM in [18].

Take `CCOC(=O)c1cn2c(n1)sc1cc(F)ccc12`: the TGI in [1], in [2], in assay [3], in assay [4], in assay [5] and in assay [6] was over 100 µM in each case. Besides, the TGI in assay [7], in assay [8], in assay [9], in assay [10], in assay [11] and in assay [12] was over 100 µM in each case. In addition, the TGI in [13], in [14], in assay [15], in assay [16], in [17] and in [18] was over 100 µM each time.

Turning to `O=C1c2sc(-c3ccc(Cl)cc3)cc2-n2cccc21`, the TGI in [1], in assay [2], in assay [3], in [4], in assay [5] and in assay [6] was over 100 µM in each case. Further, the TGI in assay [7], in assay [8], in assay [9], in assay [10], in assay [11] and in assay [12] was over 100 µM throughout. Besides, the TGI in assay [13], in assay [14], in assay [15], in assay [16], in assay [17] and in [18] was over 100 µM each time.

Regarding `COc1ccccc1CC(=O)C(O)(C(F)(F)F)C(F)(F)F`, the TGI in assay [1], in assay [2], in assay [3], in assay [4], in [5] and in assay [6] was over 100 µM each time. Besides, the TGI in [7], in [8], in assay [9], in assay [10], in assay [11] and in assay [12] was over 100 µM throughout. In addition, the TGI in assay [13], in [14], in assay [15], in assay [16], in assay [17] and in assay [18] was over 100 µM each time.

Regarding `Cc1ccc(S(=O)(=O)N2C3C=CC(C3)[C@@H]2C(Cl)(Cl)Cl)cc1` (stereo partly drawn), the TGI in assay [1] is over 100 µM; in assay [2], 43.2 µM; in [3] it was 56.1 µM; in assay [4], 41.5 µM; in assay [5] it was over 100 µM; in [6] it was over 68.5 µM. Besides, the TGI in assay [7] is over 71 µM; in [8], 86.9 µM; in assay [9] it was 47.5 µM; in assay [10], 41.3 µM; in assay [11] it was 41.4 µM; in assay [12] it was 35.5 µM. The TGI was 60.5 µM in assay [13]; 35.2 µM in assay [14]; 49.5 µM in assay [15]; over 77.1 µM in [16]; over 63.3 µM in [17]; 32.1 µM in assay [18]. For the same compound, the GI50 in assay [9] is 11.8 µM; in assay [11], 19.2 µM.

As for `C[N+]12C=CC=C1C(N1CCCC1)c1scc(-c3ccc(Br)cc3)c12` (stereo not drawn), the TGI in [1] was over 90.1 µM; in [2] it was 35.5 µM; in assay [3] it was 25.4 µM; in assay [4], 98.2 µM; in [5], 61.8 µM; in [6], over 100 µM. Moreover, the TGI in assay [7] was 20.8 µM; in [8], 98.2 µM; in assay [9], over 100 µM; in [10] it was 9.6 µM; in assay [11], 43.5 µM; in [12], 17.3 µM. Moreover, the TGI was over 51.9 µM in [13]; 80.3 µM in [14]; over 100 µM in assay [15]; over 100 µM in assay [16]; over 100 µM in [17]; 28.9 µM in assay [18].

Turning to `COc1ccc(C(C)NNC(=O)c2ccncc2)cc1OC` (stereo not drawn), the TGI in assay [1], in assay [2], in [3], in [4], in assay [5] and in assay [6] was over 100 µM in each case. Also, the TGI in [7], in assay [8], in assay [9], in assay [10], in assay [11] and in [12] was over 100 µM throughout. Moreover, the TGI in assay [13], in assay [14], in assay [15], in assay [16], in assay [17] and in [18] was over 100 µM in each case.

In the case of `C(=C/CCCN1O[C@@H](CCCCCCCCc2cccnc2)[C@H]2CCC[C@H]21)/CCCCCCCCCc1cccnc1`, the TGI in assay [1] was determined as 31.6 µM; in assay [2] it was 51.5 µM; in [3], 33.9 µM; in [4] it was 49.3 µM; in [5], 66.6 µM; in assay [6], 33.1 µM. For the same compound, the TGI was 79.4 µM in assay [7]; 71.9 µM in assay [8]; 45.5 µM in assay [9]; over 100 µM in [10]; 32.9 µM in assay [11]; 52.4 µM in assay [12]. The TGI in [13] is 41.7 µM; in assay [14], 51 µM; in [15], 37 µM; in [16] it was over 100 µM; in assay [17] it was 88.3 µM; in assay [18], 28 µM.

For `COc1ccc(C2c3cc4c(cc3OC3(OC)COC(=O)C23)OCO4)c(OC)c1` (stereo not drawn), the TGI was 90.4 µM in assay [1]; over 100 µM in assay [2]; over 100 µM in assay [3]; over 100 µM in [4]; over 100 µM in assay [5]; over 100 µM in assay [6]. Moreover, the TGI in assay [7] is over 100 µM; in assay [8] it was 5.24 µM; in assay [9], over 92.9 µM; in assay [10], 27.1 µM; in assay [11], 35.4 µM; in assay [12], over 100 µM. Also, the TGI is over 100 µM in assay [13]; over 85.9 µM in [14]; over 61.3 µM in [15]; over 100 µM in assay [16]; over 100 µM in assay [17]; over 45.5 µM in assay [18].

In the case of `O=c1[nH]c(=O)n(C2COC(CO)C2O)cc1F` (stereo not drawn), the TGI in [1], in assay [2], in assay [3], in assay [4], in assay [5] and in assay [6] was over 100 µM each time. Further, the TGI in assay [7] is over 100 µM; in assay [8] it was over 100 µM; in assay [9] it was over 100 µM; in assay [10] it was over 100 µM; in assay [11], 60.8 µM; in assay [12], over 100 µM. Moreover, the TGI in [13], in [14], in [15], in assay [16], in assay [17] and in assay [18] was over 100 µM each time.

For `CCOC(=O)CCC(NC(=O)C(N)Cc1ccc(N(CCCl)CCCl)cc1)C(=O)OCC` (stereo not drawn), the TGI in assay [1] came out at 9.5 µM; in assay [2], 14 µM; in assay [3], 0.747 µM; in assay [4], 7.9 µM; in assay [5], 3.84 µM; in assay [6], 3.08 µM. In addition, the TGI in assay [7] was 3.93 µM; in assay [8], 4.98 µM; in assay [9], over 100 µM; in [10], 4.93 µM; in assay [11] it was 0.739 µM; in [12], 6.05 µM. For the same compound, the TGI in assay [13] amounted to 5.2 µM; in assay [14] it was 1.4 µM; in [15], 2.08 µM; in assay [16], 1.38 µM; in assay [17], 2.4 µM; in assay [18], 17.7 µM. Besides, the GI50 in assay [11] is 0.17 µM.
